Results reported in PubChem BioAssay AID2060912 (Molecular Pharmacology Branch, DTP, NCI, 2025).

Test system: HUVEC/MSC spheroids viability
Test: Human HUVEC/MSC cell line growth inhibition [KRAS2];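 as to viability, T/C: percent of DMSO vehicle control luminescence so 100% = untreated viability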
Conditions: for viability, T/C: stronger effect = lower value
Summary of the method: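 Endothelial cells (HUVEC) plus mesenchymal stem cells, cultured at 37 °C/5% CO2 and assembled into spheroids without cancer cells, served as a stromal control. Drug pairs and single agents spanned half-log ranges anchored to clinical Cmax.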

[1] = curve of first compound, second compound 0.0316 µM
[2] = curve of first compound, second compound 0.1 µM
[3] = curve of first compound, second compound 0.316 µM
[4] = curve of first compound, second compound 1 µM
[5] = curve of first compound, second compound 3.16 µM
[6] = curve of first compound, second compound 10 µM
[7] = second compound 0.0316 µM, first compound 0.0316 µM
[8] = second compound 0.0316 µM, first compound 0.1 µM
[9] = second compound 0.0316 µM, first compound 0.316 µM
[10] = second compound 0.0316 µM, first compound 1 µM
[11] = second compound 0.0316 µM, first compound 3.16 µM
[12] = second compound 0.0316 µM, first compound 10 µM
[13] = second compound 0.1 µM, first compound 0.0316 µM
[14] = second compound 0.1 µM, first compound 0.1 µM
[15] = second compound 0.1 µM, first compound 0.316 µM
[16] = second compound 0.1 µM, first compound 1 µM
[17] = second compound 0.1 µM, first compound 3.16 µM
[18] = second compound 0.1 µM, first compound 10 µM
[19] = second compound 0.316 µM, first compound 0.0316 µM
[20] = second compound 0.316 µM, first compound 0.1 µM
[21] = second compound 0.316 µM, first compound 0.316 µM
[22] = second compound 0.316 µM, first compound 1 µM
[23] = second compound 0.316 µM, first compound 3.16 µM
[24] = second compound 0.316 µM, first compound 10 µM
[25] = second compound 1 µM, first compound 0.0316 µM
[26] = second compound 1 µM, first compound 0.1 µM
[27] = second compound 1 µM, first compound 0.316 µM
[28] = second compound 1 µM, first compound 1 µM
[29] = second compound 1 µM, first compound 3.16 µM
[30] = second compound 1 µM, first compound 10 µM
[31] = second compound 3.16 µM, first compound 0.0316 µM
[32] = second compound 3.16 µM, first compound 0.1 µM
[33] = second compound 3.16 µM, first compound 0.316 µM
[34] = second compound 3.16 µM, first compound 1 µM
[35] = second compound 3.16 µM, first compound 3.16 µM
[36] = second compound 3.16 µM, first compound 10 µM
[37] = second compound 10 µM, first compound 0.0316 µM
[38] = second compound 10 µM, first compound 0.1 µM
[39] = second compound 10 µM, first compound 0.316 µM
[40] = second compound 10 µM, first compound 1 µM
[41] = second compound 10 µM, first compound 3.16 µM
[42] = second compound 10 µM, first compound 10 µM

## COc1cc2nccc(Oc3ccc(NC(=O)C4(C(=O)Nc5ccc(F)cc5)CC4)cc3)c2cc1OC + CC1OCC2(CCN(c3cnc(Sc4ccnc(N)c4Cl)c(N)n3)CC2)C1N
[1]
  IC50: 5.72 µM
[2]
  IC50: 4.56 µM
[3]
  IC50: 5.32 µM
[4]
  IC50: 4.1 µM
[5]
  IC50: 3.61 µM
[6]
  IC50: 3.12 µM
[7]
  viability, T/C: 111%
[8]
  viability, T/C: 87.5%
[9]
  viability, T/C: 79.3%
[10]
  viability, T/C: 103%
[11]
  viability, T/C: 73.7%
[12]
  viability, T/C: 27.6%
[13]
  viability, T/C: 96.5%
[14]
  viability, T/C: 93%
[15]
  viability, T/C: 100%
[16]
  viability, T/C: 80.8%
[17]
  viability, T/C: 66.5%
[18]
  viability, T/C: 17.4%
[19]
  viability, T/C: 88.6%
[20]
  viability, T/C: 89.9%
[21]
  viability, T/C: 67.9%
[22]
  viability, T/C: 83%
[23]
  viability, T/C: 75%
[24]
  viability, T/C: 19.6%
[25]
  viability, T/C: 72.6%
[26]
  viability, T/C: 75.6%
[27]
  viability, T/C: 82.4%
[28]
  viability, T/C: 80%
[29]
  viability, T/C: 62.3%
[30]
  viability, T/C: 8.31%
[31]
  viability, T/C: 72.5%
[32]
  viability, T/C: 79%
[33]
  viability, T/C: 77.5%
[34]
  viability, T/C: 62.6%
[35]
  viability, T/C: 58.6%
[36]
  viability, T/C: 5.57%
[37]
  viability, T/C: 67.8%
[38]
  viability, T/C: 72%
[39]
  viability, T/C: 73.2%
[40]
  viability, T/C: 61.9%
[41]
  viability, T/C: 50.7%
[42]
  viability, T/C: 3.16%

## CC(=O)OC12COC1CC(O)C1(C)C(=O)C(O)C3=C(C)C(OC(=O)C(O)C(NC(=O)OC(C)(C)C)c4ccccc4)CC(O)(C(OC(=O)c4ccccc4)C21)C3(C)C (configuration not stated) + CC1OCC2(CCN(c3cnc(Sc4ccnc(N)c4Cl)c(N)n3)CC2)C1N
[1]
  IC50: > 3 µM
[2]
  IC50: > 3 µM
[3]
  IC50: > 3 µM
[4]
  IC50: > 3 µM
[5]
  IC50: > 3 µM
[6]
  IC50: 0.176 µM
Second compound 0.0316 µM, first compound 0.00949 µM
  viability, T/C: 58%
Second compound 0.0316 µM, first compound 0.03 µM
  viability, T/C: 65.1%
Second compound 0.0316 µM, first compound 0.0949 µM
  viability, T/C: 67.3%
Second compound 0.0316 µM, first compound 0.3 µM
  viability, T/C: 58.4%
Second compound 0.0316 µM, first compound 0.949 µM
  viability, T/C: 68.1%
Second compound 0.0316 µM, first compound 3 µM
  viability, T/C: 73.6%
Second compound 0.1 µM, first compound 0.00949 µM
  viability, T/C: 67%
Second compound 0.1 µM, first compound 0.03 µM
  viability, T/C: 66%
Second compound 0.1 µM, first compound 0.0949 µM
  viability, T/C: 71.4%
Second compound 0.1 µM, first compound 0.3 µM
  viability, T/C: 57.9%
Second compound 0.1 µM, first compound 0.949 µM
  viability, T/C: 73.2%
Second compound 0.1 µM, first compound 3 µM
  viability, T/C: 72.5%
Second compound 0.316 µM, first compound 0.00949 µM
  viability, T/C: 56.1%
Second compound 0.316 µM, first compound 0.03 µM
  viability, T/C: 63.3%
Second compound 0.316 µM, first compound 0.0949 µM
  viability, T/C: 50%
Second compound 0.316 µM, first compound 0.3 µM
  viability, T/C: 53.6%
Second compound 0.316 µM, first compound 0.949 µM
  viability, T/C: 62.5%
Second compound 0.316 µM, first compound 3 µM
  viability, T/C: 68.4%
Second compound 1 µM, first compound 0.00949 µM
  viability, T/C: 67.2%
Second compound 1 µM, first compound 0.03 µM
  viability, T/C: 58%
Second compound 1 µM, first compound 0.0949 µM
  viability, T/C: 47.1%
Second compound 1 µM, first compound 0.3 µM
  viability, T/C: 52.1%
Second compound 1 µM, first compound 0.949 µM
  viability, T/C: 59%
Second compound 1 µM, first compound 3 µM
  viability, T/C: 58.5%
Second compound 3.16 µM, first compound 0.00949 µM
  viability, T/C: 49.8%
Second compound 3.16 µM, first compound 0.03 µM
  viability, T/C: 59.5%
Second compound 3.16 µM, first compound 0.0949 µM
  viability, T/C: 49.8%
Second compound 3.16 µM, first compound 0.3 µM
  viability, T/C: 54.2%
Second compound 3.16 µM, first compound 0.949 µM
  viability, T/C: 48%
Second compound 3.16 µM, first compound 3 µM
  viability, T/C: 56.2%
Second compound 10 µM, first compound 0.00949 µM
  viability, T/C: 55.6%
Second compound 10 µM, first compound 0.03 µM
  viability, T/C: 61.8%
Second compound 10 µM, first compound 0.0949 µM
  viability, T/C: 41.7%
Second compound 10 µM, first compound 0.3 µM
  viability, T/C: 50.3%
Second compound 10 µM, first compound 0.949 µM
  viability, T/C: 50.9%
Second compound 10 µM, first compound 3 µM
  viability, T/C: 46.7%

## COc1cc2nccc(Oc3ccc(NC(=O)C4(C(=O)Nc5ccc(F)cc5)CC4)cc3)c2cc1OC + COc1cc2nc(C)nc(NC(C)c3cc(N)cc(C(F)(F)F)c3)c2cc1OC1CCOC1
[1]
  IC50: 6.12 µM
[2]
  IC50: 4.19 µM
[3]
  IC50: 5.33 µM
[4]
  IC50: 5.1 µM
[5]
  IC50: 4.26 µM
[6]
  IC50: 1.87 µM
[7]
  viability, T/C: 73.8%
[8]
  viability, T/C: 75.2%
[9]
  viability, T/C: 66.8%
[10]
  viability, T/C: 80.3%
[11]
  viability, T/C: 73.5%
[12]
  viability, T/C: 32.5%
[13]
  viability, T/C: 74.7%
[14]
  viability, T/C: 77%
[15]
  viability, T/C: 68%
[16]
  viability, T/C: 64.8%
[17]
  viability, T/C: 63.4%
[18]
  viability, T/C: 15.9%
[19]
  viability, T/C: 66.1%
[20]
  viability, T/C: 68.5%
[21]
  viability, T/C: 60.8%
[22]
  viability, T/C: 78.2%
[23]
  viability, T/C: 87.7%
[24]
  viability, T/C: 23.3%
[25]
  viability, T/C: 61.6%
[26]
  viability, T/C: 69%
[27]
  viability, T/C: 58.1%
[28]
  viability, T/C: 85.2%
[29]
  viability, T/C: 79.4%
[30]
  viability, T/C: 21.1%
[31]
  viability, T/C: 60.6%
[32]
  viability, T/C: 67.2%
[33]
  viability, T/C: 60.9%
[34]
  viability, T/C: 76.5%
[35]
  viability, T/C: 66.9%
[36]
  viability, T/C: 3.26%
[37]
  viability, T/C: 56.9%
[38]
  viability, T/C: 57.8%
[39]
  viability, T/C: 73.3%
[40]
  viability, T/C: 82.5%
[41]
  viability, T/C: 35.1%
[42]
  viability, T/C: 0.26%

## Cn1ncnc1[C@H]1c2n[nH]c(=O)c3cc(F)cc(c23)N[C@@H]1c1ccc(F)cc1
Compound 0.001 µM
  viability, T/C: 87.9% [middle of 5 runs]
Compound 0.00316 µM
  viability, T/C: 83.8% [middle of 5 runs]
Compound 0.01 µM
  viability, T/C: 90.7% [middle of 5 runs]
Compound 0.0316 µM
  viability, T/C: 88.1% [middle of 5 runs]
Compound 0.1 µM
  viability, T/C: 84.2% [middle of 5 runs]
Curve of compound
  IC50: > 0.1 µM
